Where a name gives a salt, the structure may show the parent alone.
Key:
tubulin = molecular target: T1, tubulin (Sus scrofa, UniProt P02550+P02554); assay: Evaluation of the inhibition of tubulin polymerization (turbidimetry); format: biochemical, pig; details: tubulin 10 μm (1 mg/ml), 37° C., turbidity at 350 nm; concentration that inhibits the rate of polymerization by 50%; read-out: Inhibition of tubulin polymerization IC 50 (μm)
T1 construct: Tubulin is purified from pig brain according to published methods; from tissue; host or cells: pig brain
In short: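 Pig brain tubulin (>95% pure), 10 μm in MES pH 6.8/30% glycerol buffer plus 1 mM GTP and 6 mM MgCl2, with compound at 0.5–10 μm added before polymerization. Polymerization triggered by shift from 6° C to 37° C, followed by turbidity at 350 nm; IC50 is 50% inhibition of polymerization rate.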

HCT116 cells = assay: Inhibition of proliferation of the human colon tumor line HCT116 ([14C]-thymidine incorporation); format: cell-based; details: Homo sapiens, HCT-116, 48 h, 48 hours at 37° C., read-out: Inhibition of HCT116 proliferation IC 50 (μm)
In short: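 HCT116 cells (5000/well) in DMEM with 10% fetal calf serum incubated 48 h at 37° C with [14C]-thymidine (0.1 μCi/well) and compound up to 10 μm (DMSO ≤0.5%). Incorporated radioactivity counted; IC50 is concentration cutting radioactivity by 50% versus untreated control.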

T1 sequence (P02550 whole entry): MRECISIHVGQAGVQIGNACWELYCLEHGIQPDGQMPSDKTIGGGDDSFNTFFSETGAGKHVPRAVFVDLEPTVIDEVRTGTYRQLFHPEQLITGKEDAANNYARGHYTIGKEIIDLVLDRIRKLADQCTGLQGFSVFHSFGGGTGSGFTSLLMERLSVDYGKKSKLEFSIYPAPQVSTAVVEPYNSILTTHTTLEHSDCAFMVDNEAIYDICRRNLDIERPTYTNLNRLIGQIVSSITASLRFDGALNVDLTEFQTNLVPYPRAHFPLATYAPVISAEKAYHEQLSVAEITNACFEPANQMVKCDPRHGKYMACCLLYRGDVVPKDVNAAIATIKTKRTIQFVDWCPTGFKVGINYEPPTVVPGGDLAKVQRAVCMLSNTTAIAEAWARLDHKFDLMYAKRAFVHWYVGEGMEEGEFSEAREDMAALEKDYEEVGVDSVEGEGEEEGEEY
T1 sequence (P02554 whole entry): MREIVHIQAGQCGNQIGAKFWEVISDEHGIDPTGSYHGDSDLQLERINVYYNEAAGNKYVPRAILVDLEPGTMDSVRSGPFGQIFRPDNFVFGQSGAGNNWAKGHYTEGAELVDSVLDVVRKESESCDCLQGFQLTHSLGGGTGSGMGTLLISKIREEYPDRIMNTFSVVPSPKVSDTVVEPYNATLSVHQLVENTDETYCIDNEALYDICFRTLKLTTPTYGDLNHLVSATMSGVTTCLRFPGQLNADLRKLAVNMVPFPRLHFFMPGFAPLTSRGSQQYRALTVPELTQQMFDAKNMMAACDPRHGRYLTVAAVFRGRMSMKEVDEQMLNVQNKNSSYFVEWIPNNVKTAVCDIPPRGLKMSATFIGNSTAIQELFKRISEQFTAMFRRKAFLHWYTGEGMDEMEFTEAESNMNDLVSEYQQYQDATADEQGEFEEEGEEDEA

| Structure (SMILES) | IC50 (tubulin) | IC50 (HCT116 cells) | melting point |
| --- | --- | --- | --- |
| O=C(c1cccn1-c1ccccc1)N1CCN(c2cccc(Cl)c2)CC1 [Example 6, [4-(3-Chlorophenyl)piperazin-1-yl](1-phenyl-1H-pyrrol-2-yl)methanone] | 1.2 µM | 0.0382 µM | 105 °C |
| Cc1cc(C(=O)N2CCN(c3ccccc3C(F)(F)F)CC2)n(-c2ccccc2)n1 [3/84] | 5.5 µM | 0.176 µM | – |
| Cc1cc(C(=O)N2CCN(c3cccc(C)c3C)CC2)n(-c2ccc(F)cc2)n1 [3/148] | 1.5 µM | 0.198 µM | – |
| Cc1cccc(N2CCN(C(=O)c3cc(C)nn3-c3ccccc3)CC2)c1 [3/11] | 3 µM | 0.036 µM | – |
| Cc1cc(C(=O)N2CCN(c3ccccc3)CC2)n(-c2cccc(Cl)c2)n1 [3/40] | 3 µM | 0.775 µM | – |
| Cc1cc(C(=O)N2CCN(c3cccc4ccccc34)CC2)n(-c2cccc(F)c2)n1 [3/20] | 3 µM | 1.85 µM | – |
| Cc1cc(C(=O)N2CCN(c3cccc(Cl)c3)CC2)n(-c2cccc(F)c2)n1 [3/18] | 2 µM | 0.028 µM | – |
| Cc1cc(C(=O)N2CCN(c3cccc4ccccc34)CC2)n(-c2ccc(F)cc2)n1 [3/59] | 5.7 µM | 4.98 µM | – |
| Cc1cc(C(=O)N2CCN(c3ccc(C)c(C)c3)CC2)n(-c2cccc(Cl)c2)n1 [3/66] | 2 µM | 0.073 µM | – |
| COc1ccc(Cl)cc1N1CCN(C(=O)c2cc(C)nn2-c2cccc(F)c2)CC1 [3/22] | 1.5 µM | 0.046 µM | – |
| CSc1ccccc1N1CCN(C(=O)c2cc(C)nn2-c2ccc(F)cc2)CC1 [3/58] | 4.5 µM | 3.94 µM | – |
| Cc1cc(C(=O)N2CCN(c3ccc4c(c3)OCCO4)CC2)n(-c2ccc(F)cc2)n1 [3/62] | 6 µM | 0.071 µM | – |
| Cc1cc(C(=O)N2CCN(c3ccccc3C)CC2)n(-c2ccccc2)n1 [3/42] | 5 µM | 0.085 µM | – |
| Cc1cc(C(=O)N2CCN(c3ccccc3)CC2)n(-c2ccccc2)n1 [3/6] | 4.5 µM | 0.177 µM | – |
| Cc1cccc(N2CCN(C(=O)c3cc(C)nn3-c3cccc(Cl)c3)CC2)c1 [3/123] | 3.3 µM | 0.051 µM | – |
| COc1cccc(-n2nc(C)cc2C(=O)N2CCN(c3cccc(Cl)c3Cl)CC2)c1 [3/139] | < 25 µM | 1.35 µM | – |
| Cc1cccc(-n2nc(C)cc2C(=O)N2CCN(c3cccc(C(F)(F)F)c3)CC2)c1 [3/46] | 8 µM | 0.197 µM | – |
| Cc1cccc(N2CCN(C(=O)c3cc(C)nn3-c3ccc(Cl)cc3)CC2)c1 [3/74] | 7.5 µM | 0.298 µM | – |
| COc1ccc(-n2nc(C)cc2C(=O)N2CCN(c3cccc(Cl)c3Cl)CC2)cc1 [3/106] | 7 µM | 0.985 µM | – |
| Cc1cc(C(=O)N2CCN(c3ccccc3Cl)CC2)n(-c2ccccc2)n1 [3/112] | 15 µM | 1.52 µM | – |
| Cc1cccc(-n2nc(C)cc2C(=O)N2CCN(c3cc(Cl)ccc3C)CC2)c1 [3/53] | 1.2 µM | 0.052 µM | – |

Results, then the molecule that gave them:

| IC50 (tubulin) | IC50 (HCT116 cells) | melting point | Structure (SMILES) |
| --- | --- | --- | --- |
| 6 µM | 0.04 µM | 129 °C | Cc1cc(C(=O)N2CCN(c3cnccn3)CC2)n(-c2ccccc2)n1 [Example E19, (5-Methyl-2-phenyl-2H-pyrazol-3-yl)(2,3,5,6-tetrahydro-[1,2′]bipyrazinyl-4-yl)-methanone] |
| 3.74 µM | 0.2 µM | 116 °C | COc1cc(OC)cc(N2CCN(C(=O)c3cc(C(C)C)nn3-c3ccccc3)CC2)c1 [Example E71, [4-(3,5-Dimethoxyphenyl)piperazin-1-yl](5-isopropyl-2-phenyl-2H-pyrazol-3-yl)methanone] |
| 13.5 µM | – | 127 °C | Cc1cc(C(=O)N2CCN(c3ccccc3[N+](=O)[O-])CC2)n(-c2ccccc2)n1 [Example E62, (5-Methyl-2-phenyl-2H-pyrazol-3-yl)[4-(2-nitrophenyl)piperazin-1-yl]methanone] |
| 0.9 µM | 0.0012 µM | 138 °C | Cc1cc(C(=O)N2CCN(c3cccc(Br)c3)CC2)n(-c2ccccc2)n1 [Example E6, [4-(3-Bromophenyl)piperazin-1-yl](5-methyl-2-phenyl-2H-pyrazol-3-yl)methanone] |
| 0.9 µM | 0.0049 µM | 136 °C | Cc1cc(C(=O)N2CCN(c3cccc(C#N)c3)CC2)n(-c2ccccc2)n1 [Example E10, [4-(3-Cyanophenyl)piperazin-1-yl](5-methyl-2-phenyl-2H-pyrazol-3-yl)-methanone] |
| 22.5 µM | – | 144 °C | Cc1cc(C(=O)N2CCN(c3cccc(C(=O)OC(C)(C)C)c3)CC2)n(-c2ccccc2)n1 [Example E27, tert-butyl 3-[4-(5-methyl-2-phenyl-2H-pyrazole-3-carbonyl)piperazin-1-yl]benzoate] |
| 14 µM | 0.239 µM | 128 °C | Cc1cc(C(=O)N2CCN(c3nccc4ccccc34)CC2)n(-c2ccccc2)n1.Cl [Example E15, [4-(Isoquinolin-1-yl)piperazin-1-yl](5-methyl-2-phenyl-2H-pyrazol-3-yl)-methanone hydrochloride] |
| 1.4 µM | 0.0104 µM | 134 °C | CC(=O)c1cccc(N2CCN(C(=O)c3cc(C)nn3-c3ccccc3)CC2)c1 [Example E107, 1-{3-[4-(5-Methyl-2-phenyl-2H-pyrazole-3-carbonyl)piperazin-1-yl]phenyl}ethanone] |
| – | – | 180 °C | O=C(c1cccn1-c1ccccc1)N1CCN(c2cccnc2)CC1 (as salt: hydrochloride) [Example E46, (1-Phenyl-1H-pyrrol-2-yl)[4-(pyrid-3-yl)piperazin-1-yl]methanone hydrochloride] |
| 2.33 µM | – | 204 °C | Cc1cc(C(=O)N2CCN(c3cc(F)c(F)c(F)c3)CC2)n(-c2ccccc2)n1 [Example E111, (5-Methyl-2-phenyl-2H-pyrazol-3-yl)[4-(3,4,5-trifluorophenyl)piperazin-1-yl]methanone] |
| 3.2 µM | – | 216 °C | NC(=O)c1cccc(N2CCN(C(=O)c3cc(CO)nn3-c3ccccc3)CC2)c1 [Example E134, 3-[4-(5-Hydroxymethyl-2-phenyl-2H-pyrazole-3-carbonyl)piperazin-1-yl]benzamide] |
| 1.7 µM | 0.312 µM | – | Cc1cc(C(=O)N2CCN(c3cccc(-c4ccccc4)c3)CC2)n(-c2ccccc2)n1 [Example E24, [4-(Biphenyl-3-yl)piperazin-1-yl)(5-methyl-2-phenyl-2H-pyrazol-3-yl)methanone] |
| 5.1 µM | 0.0612 µM | – | Cc1nccn1Cc1cc(C(=O)N2CCN(c3cccc(Cl)c3)CC2)n(-c2ccccc2)n1 [Example E75, [4-(3-Chlorophenyl)piperazin-1-yl][5-(2-methylimidazol-1-ylmethyl)-2-phenyl-2H-pyrazol-3-yl]methanone] |
| 1.37 µM | 0.0117 µM | – | O=C(c1cc(CO)nn1-c1ccccc1)N1CCN(c2cccc(Cl)c2)CC1 [Example E60, (5-Hydroxymethyl-2-phenyl-2H-pyrazol-3-yl)[4-(3-chlorophenyl)piperazin-1l-yl]methanone] |
| 1.7 µM | 6.15 µM | – | O=C(c1cc(-c2cccs2)nn1-c1ccccc1)N1CCN(c2cccc(Cl)c2)CC1 [Example E69, [4-(3-Chlorophenyl)piperazin-1-yl][2-phenyl-5-(thiophen-2-yl)-2H-pyrazol-3-yl]methanone] |
| 1 µM | 0.0142 µM | – | Cc1cc(C(=O)N2CCN(c3cccc(O)c3)CC2)n(-c2ccccc2)n1 [Example E13, [4-(3-Hydroxyphenyl)piperazin-1-yl](5-methyl-2-phenyl-2H-pyrazol-3-yl)-methanone] |
| 0.8 µM | 0.003 µM | – | Cc1cc(C(=O)N2CCN(c3cccc([N+](=O)[O-])c3)CC2)n(-c2ccccc2)n1 [Example E5, [4-(3-Nitrophenyl)piperazin-1-yl](5-methyl-2-phenyl-2H-pyrazol-3-yl)-methanone] |
| 1.39 µM | 0.181 µM | – | COc1cc(OC)cc(N2CCN(C(=O)c3cc(-c4ccsc4)nn3-c3ccccc3)CC2)c1 [Example E85, [4-(3,5-Dimethoxyphenyl)piperazin-1-yl][2-phenyl-5-(thiophen-3-yl)-2H-pyrazol-3-yl]methanone] |
| 10 µM | 0.142 µM | – | COc1cc(OC)cc(N2CCN(C(=O)c3cc(N4CCC(O)C4)nn3-c3ccccc3)CC2)c1 (stereo not drawn) [Example E106, [4-(3,5-Dimethoxyphenyl)piperazin-1-yl][5-(3-hydroxypyrrolidin-1-yl)-2-phenyl-2H-pyrazol-3-yl]methanone] |
| 2.5 µM | 0.0719 µM | – | Cc1cc(C(=O)N2CCN(c3cccc(C(C)O)c3)CC2)n(-c2ccccc2)n1 (stereo not drawn) [Example E39, {4-[3-(1-Hydroxyethyl)phenyl]piperazin-1-yl}(5-methyl-2-phenyl-2H-pyrazol-3-yl)methanone hydrochloride] |
| 14 µM | 0.318 µM | – | COc1cc(OC)cc(N2CCN(C(=O)c3cc(C(Br)Br)nn3-c3ccccc3)CC2)c1 [Example E78, [4-(3,5-Dimethoxyphenyl)piperazin-1-yl](3-dibromomethyl-1-phenyl-1H-pyrazol-5-yl)methanone] |
